Laboratory results taken from ChEMBL document CHEMBL3044631, “Synthesis of 2-[4,5-dimethyl-1-(phenylamino)-1H-imidazol-2-ylthio]-N-(thiazole-2-yl)acetamide derivatives and their anticancer activities” (2013).

How the values were obtained:
Format in all cases: functional
[1] = test system: HCT-15; assay: Anticancer activity against Homo sapiens (human) HCT15 cells after 48 hr by SRB assay; details: HCT-15, 48 h
[2] = test system: Hs-578T; assay: Anticancer activity against Homo sapiens (human) Hs 578T cells after 48 hr by SRB assay
[3] = test system: DU-145; assay: Anticancer activity against Homo sapiens (human) DU145 cells after 48 hr by SRB assay; details: DU-145, 48 h
[4] = test system: OVCAR-5; assay: Anticancer activity against Homo sapiens (human) OVCAR5 cells after 48 hr by SRB assay; details: OVCAR-5, 48 h
[5] = test system: NCI/ADR-RES; assay: Anticancer activity against Homo sapiens (human) NCI/ADR-RES cells after 48 hr by SRB assay
[6] = test system: HCT-116; assay: Anticancer activity against Homo sapiens (human) HCT116 cells after 48 hr by SRB assay; details: HCT-116, 48 h
[7] = test system: A549; assay: Anticancer activity against Homo sapiens (human) A549/ATCC cells after 48 hr by SRB assay; details: A549, 48 h
[8] = test system: SNB-19; assay: Anticancer activity against Homo sapiens (human) SNB19 cells after 48 hr by SRB assay; details: SNB-19, 48 h
[9] = test system: SNB-75; assay: Anticancer activity against Homo sapiens (human) SNB75 cells after 48 hr by SRB assay; details: SNB-75, 48 h
[10] = test system: NCI-H23; assay: Anticancer activity against Homo sapiens (human) NCI-H23 cells after 48 hr by SRB assay; details: NCI-H23, 48 h
[11] = test system: SF-539; assay: Anticancer activity against Homo sapiens (human) SF539 cells after 48 hr by SRB assay; details: SF-539, 48 h
[12] = test system: CAKI-1; assay: Anticancer activity against Homo sapiens (human) CAKI-1 cells after 48 hr by SRB assay; details: CAKI-1, 48 h
[13] = test system: HOP-62; assay: Anticancer activity against Homo sapiens (human) HOP62 cells after 48 hr by SRB assay; details: HOP-62, 48 h
[14] = test system: NCI-H322M; assay: Anticancer activity against Homo sapiens (human) NCI-H322M cells after 48 hr by SRB assay
[15] = test system: UACC-257; assay: Anticancer activity against Homo sapiens (human) UACC257 cells after 48 hr by SRB assay; details: UACC-257, 48 h
[16] = test system: M14; assay: Anticancer activity against Homo sapiens (human) M14 cells after 48 hr by SRB assay; details: M14, 48 h
[17] = test system: K562; assay: Anticancer activity against Homo sapiens (human) K562 cells after 48 hr by SRB assay; details: K562, 48 h
[18] = test system: IGROV-1; assay: Anticancer activity against Homo sapiens (human) IGROV1 cells after 48 hr by SRB assay; details: IGROV-1, 48 h
[19] = test system: T47D; assay: Anticancer activity against Homo sapiens (human) T47D cells after 48 hr by SRB assay
[20] = test system: SK-MEL-5; assay: Anticancer activity against Homo sapiens (human) SK-MEL-5 cells after 48 hr by SRB assay; details: SK-MEL-5, 48 h
[21] = test system: LOX IMVI; assay: Anticancer activity against Homo sapiens (human) LOXIMVI cells after 48 hr by SRB assay
[22] = test system: MDA-MB-231; assay: Anticancer activity against Homo sapiens (human) MDA-MB-231/ATCC cells after 48 hr by SRB assay; details: MDA-MB-231, 48 h
[23] = test system: SF-268; assay: Anticancer activity against Homo sapiens (human) SF268 cells after 48 hr by SRB assay; details: SF-268, 48 h
[24] = test system: HL-60(TB); assay: Anticancer activity against Homo sapiens (human) HL-60(TB) cells after 48 hr by SRB assay; details: HL-60, 48 h
[25] = test system: BT-549; assay: Anticancer activity against Homo sapiens (human) BT549 cells after 48 hr by SRB assay; details: BT-549, 48 h
[26] = test system: COLO 205; assay: Anticancer activity against Homo sapiens (human) COLO205 cells after 48 hr by SRB assay; details: COLO 205, 48 h
[27] = test system: UO-31; assay: Anticancer activity against Homo sapiens (human) UO31 cells after 48 hr by SRB assay; details: UO-31, 48 h
[28] = test system: NCI-H522; assay: Anticancer activity against Homo sapiens (human) NCI-H522 cells after 48 hr by SRB assay; details: NCI-H522, 48 h
[29] = test system: OVCAR-4; assay: Anticancer activity against Homo sapiens (human) OVCAR4 cells after 48 hr by SRB assay; details: OVCAR-4, 48 h
[30] = test system: EKVX; assay: Anticancer activity against Homo sapiens (human) EKVX cells after 48 hr by SRB assay
[31] = test system: A498; assay: Anticancer activity against Homo sapiens (human) A498 cells after 48 hr by SRB assay; details: A498, 48 h
[32] = read-out: LC50 (the source's name)

Structure (SMILES): COc1ccc(Nn2c(SCC(=O)Nc3nc(-c4ccc(Cl)cc4)cs3)nc(C)c2C)cc1
- GI50 [1]: 4.79 µM
- TGI [1]: > 100 µM
- CC50 [1, 32]: > 100 µM
- GI50 [2]: 11.8 µM
- TGI [2]: > 100 µM
- CC50 [2, 32]: > 100 µM
- GI50 [3]: 4.06 µM
- LC50 (concentration killing 50% of cells) [3]: > 100 µM
- TGI [3]: > 100 µM
- GI50 [4]: > 100 µM
- LC50 [4]: > 100 µM
- TGI [4]: > 100 µM
- GI50 [5]: 2.89 µM
- LC50 [5]: > 100 µM
- TGI [5]: > 100 µM
- GI50 [6]: 2.12 µM
- LC50 [6]: > 100 µM
- TGI [6]: 14.1 µM
- GI50 [7]: 3.32 µM
- LC50 [7]: > 100 µM
- TGI [7]: > 100 µM
- GI50 [8]: 6.2 µM
- LC50 [8]: > 100 µM
- TGI [8]: > 100 µM
- GI50 [9]: 4.8 µM
- LC50 [9]: > 100 µM
- TGI [9]: > 100 µM
- GI50 [10]: 1.53 µM
- TGI [10]: > 100 µM
- CC50 [10, 32]: > 100 µM
- GI50 [11]: 4.15 µM
- LC50 (concentration killing 50% of cells) [11]: > 100 µM
- TGI [11]: > 100 µM
- GI50 [12]: 2.16 µM
- LC50 (concentration killing 50% of cells) [12]: > 100 µM
- TGI [12]: > 100 µM
- LC50 [13]: > 100 µM
- GI50 [14]: > 100 µM
- TGI [14]: > 100 µM
- CC50 [14, 32]: > 100 µM
- GI50 [15]: 2.97 µM
- LC50 [15]: > 100 µM
- TGI [15]: 41.1 µM
- GI50 [16]: 3.02 µM
- LC50 [16]: > 100 µM
- TGI [16]: > 100 µM
- GI50 [17]: 1.58 µM
- TGI [17]: > 100 µM
- CC50 [17, 32]: > 100 µM
- GI50 [18]: 5.67 µM
- LC50 (concentration killing 50% of cells) [18]: > 100 µM
- TGI [18]: > 100 µM
- GI50 [19]: 1.23 µM
- TGI [19]: 8.04 µM
- CC50 [19, 32]: > 100 µM
- GI50 [20]: 1.41 µM
- LC50 (concentration killing 50% of cells) [20]: 7.96 µM
- TGI [20]: 3.35 µM
- GI50 [21]: 3.02 µM
- LC50 (50% lethal concentration) [21]: > 100 µM
- TGI [21]: 44.2 µM
- GI50 [22]: 8.37 µM
- TGI [22]: > 100 µM
- CC50 [22, 32]: > 100 µM
- GI50 [23]: 2.81 µM
- LC50 [23]: > 100 µM
- TGI [23]: > 100 µM
- GI50 [24]: > 100 µM
- TGI [24]: 59.1 µM
- CC50 [24, 32]: > 100 µM
- GI50 [25]: 6.46 µM
- LC50 [25]: > 100 µM
- TGI [25]: 82 µM
- GI50 [26]: 1.94 µM
- TGI [26]: 3.55 µM
- CC50 [26, 32]: 6.51 µM
- GI50 [27]: 2.62 µM
- TGI [27]: > 100 µM
- CC50 [27, 32]: > 100 µM
- GI50 [28]: 5.05 µM
- LC50 (50% lethal concentration) [28]: > 100 µM
- TGI [28]: > 100 µM
- GI50 [29]: 4.02 µM
- LC50 (concentration killing 50% of starting cells) [29]: > 100 µM
- TGI [29]: > 100 µM
- GI50 [30]: 1.92 µM
- TGI [30]: > 100 µM
- CC50 [30, 32]: > 100 µM
- GI50 [31]: 2.22 µM
- LC50 [31]: > 100 µM
- TGI [31]: 56.5 µM
